# Patent publication US10239871B2, “Compounds and methods for regulating integrins” (ADHAERE PHARMACEUTICALS, INC., priority 2012, dated 2019)
# What was measured:
# Cl66 cells = test: Orthotopic Cl66 mammary adenocarcinoma tumor growth, with or without Taxol; type: in vivo; details: BALB/c mice, vs vehicle
# Method: The syngeneic murine mammary adenocarcinoma cell line Cl66 (moderately metastatic and is related to the highly metastatic 4T1 cell line) was orthotopically introduced in Balb/c animals, by injecting ˜5×10^5 Cl66 cells under the left mammary fat pad of WT BALB/c mice (approx. 8-10 weeks old). The tumor size was measured using calipers every other day until the end of the experiment (approx. 5 weeks). 7-days post implantation, the tumors in all animals became palpable, with an average size of ˜100 mm3. At that time, animals in each group were treated as described. LA1 was administered daily for the first two weeks and then every other day until the end of the experiment. Animals in Group 1 received Saline injections, as control. […] It can also enhance the efficacy of traditional chemotherapy in various cancers, including breast cancer, to produce a synergistic response to the treatment. It can also reduce the incidence and the size of metastases.
# [1] = test system: MAPK signaling (pERK, pJNK) in K562 WT cells; test: Western blotting of pERK and pJNK in K562 WT cells; type: cell-based, human; details: CD11b/CD18 ligation with fibrinogen, all conditions
# Method: K562 WT cells were incubated with LA1, LA2, LA15 (15 μM), or fibrinogen (200 μg) in serum-free medium for 1 hour at 37° C. Cell lysates were resolved on 4-12% NuPAGE Bis-Tris SDS-PAGE gels using MES running buffer and transferred to a polyvinylidene difluoride (PVDF) membrane (ThermoScientific) using established protocols. Membranes were incubated with a 1:1,000 dilution of the anti-phospho-protein antibodies (anti phospho-p44/42 MAPK (pERK1/2) antibody (Thr202/Tyr204, Cell Signaling) or anti-phospho-SAPK/JNK (pJNK) antibody (Thr183/Tyr185, Cell Signaling #81E11)), or with an antibody against either total ERK1/2 (p44/42 MARK (Erk1/2), Cell Signaling #137F5) or total JNK (SAPK/JNK, Cell Signaling #56G8) and developed according to the manufacturer's instructions (ThermoScientific). Proteins were quantified by densitometry using ImageJ software. […]
# Second, an effect of integrin ligation, macro clustering and redistribution in the plasma membrane is the triggering of outside-in intracellular signaling in cells via various MAPKs. […] In FIGS. 6A-6B, immunoblot results from two independent experiments were quantified using ImageJ software and ratio of phosphorylated protein to total protein was determined. Histograms showing this quantitation for each set are also shown. […] In FIGS. 6C-6D, immunoblot results from two independent experiments were quantified and are also shown, as in 6A and 6B.
# CD11b/CD18 = CD11b/CD18 (Homo sapiens, UniProt P11215); test: Immunofluorescence microscopy of CD11b/CD18 clustering on K562 WT cells; type: cell-based; set-up: K562 cells stably transfected with plasmid encoding wild-type integrin CD11b/CD18; expressed in transfected cells; details: presence of fibrinogen 50 μg/mL
# Method: To visualize changes upon ligand binding, fibrinogen (50 μg/mL) was also added to the cell suspension media in a second set of incubations. The cells were fixed in suspension and incubated with mAb 184, which is specific for CD11b/CD18, followed by Alexa Fluor 488-conjugated goat antibody against mouse Ig (Sigma). Fluorescence images were recorded with a Leica DMI16000 deconvolution microscope using an HCX APO 40×/0.75 DRY objective with a DCF360FX camera and with Leica LAS-AF software. A 3-dimensional representation of CD11b/CD18 fluorescence intensity and the analysis of the number of CD11b/CD18 clusters per cell was performed using ImageJ software as described. Clustering determination was carried out by counting individual fluorescent peaks that were projected from the basal to the apical side of the cell and were at least 50% above the base line levels. The images presented are representative of at least 20 cells analyzed for each condition from at least three independent experiments.
# Therefore, to investigate, a combination of confocal microscopy (to study clustering) and western blotting assays (to study intracellular signaling) using K562 WT cells were used. First, CD11b/CD18 cell-surface distribution and macro clustering was studied under various conditions using confocal microscopy. K562 WT cells in suspension were incubated with various agonists, fixed with paraformaldehyde and the surface expressed CD11b/CD18 was fluorescently stained with anti-CD11b/CD18 mAb 1B4. […] The fluorescence images shown are representative of three independent experiments. […] Also shown below each image is a 3D representation of CD11b fluorescence intensity for selected cells, analyzed in ImageJ In FIG. 5B, data shown are mean±SEM from >40 cells per condition and from >3 independent experiments for each condition. ***p<0.0001, ns=not significant.
# [2] = test system: RAW 264.7 macrophage cells; test: Wound healing assay (macrophage migration); type: cell-based, murine; details: LPS 100 ng/mL or PMA 100 nM vs unstimulated (DMSO), 48 hours
# Method: Murine RAW 264.7 macrophage cells were grown in DMEM 10% FBS medium in T75 flasks to 70% confluence. The cells were detached by trypsin treatment for 10 minutes at 37° C. and evenly reseeded in 24 well plates and allowed to attain >70% confluency. A scratch was introduced horizontally across the well using 200 µL tip applying even force throughout the etching and holding the tip at approximately an 80 degree angle. The wells were subsequently washed and fresh medium containing various treatment groups was introduced. The wound was imaged using 10× objective. The cells were allowed to grow for 48 hours and the wound was reimaged at the same field after 48 hours. The average extent of wound closure was evaluated by measuring the width of the wound. The area healed was analyzed using ImageJ software and is expressed as percentage healing after 48 hours.
# For FIG. 4B, RAW 264.7 cells were plated in 24-well tissue culture plates (2×10^6 cells/well) and allowed to adhere in complete media for 12 hours. […] Images of the cells in culture were obtained immediately prior to (0 hours) and after the completion of the experiment (48 hours) using an inverted phase contrast microscope attached to a video camera.
# Representative data shown here are from a triplicate well experiment from one of at least two to three independent experiments. **p<0.001, ***p<0.0001.
# Human macrophages = test: TNF-α release from human macrophages; type: cell-based; details: n=14
# patients = details: cited from earlier work
molecule,measurement,setting,value
"CC(=O)O[C@H]1C(=O)[C@@]2(C)[C@H]([C@H](OC(=O)c3ccccc3)[C@]3(O)C[C@H](OC(=O)[C@H](O)[C@@H](NC(=O)c4ccccc4)c4ccccc4)C(C)=C1C3(C)C)[C@]1(OC(C)=O)CO[C@@H]1C[C@@H]2O [Taxol, reference compound]","rate of tumor growth, single agent",Cl66 cells,significant reduction in the rate of tumor growth
fibrinogen [reference compound],phosphorylated ERK (pERK) and phosphorylated JNK (pJNK),[1],high levels of both pERK and pJNK
same,CD11b/CD18 macro clustering on cell surface,CD11b/CD18,significant CD11b/CD18 macro clustering
"CCCCCCCCCCCCCC(=O)O[C@@H]1[C@@H](C)[C@@]2(O)[C@@H](C=C(CO)C[C@]3(O)C(=O)C(C)=C[C@@H]23)[C@@H]2C(C)(C)[C@]12OC(C)=O [PMA, phorbol-12-myristate-13-acetate, reference compound]",migration of macrophages into the wound area upon stimulation,[2],significantly induced the migration of macrophages
"CCOCc1nc2c(N)nc3ccccc3c2n1CC(C)(C)O [R848, reference compound]","TNF-α release, stimulus alone vs macrophages alone",Human macrophages,significantly stimulated TNF-α release
CC(=O)O[C@@]12CO[C@@H]1C[C@H](O)[C@@]1(C)C(=O)[C@H](O)C3=C(C)[C@@H](OC(=O)[C@H](O)[C@@H](NC(=O)OC(C)(C)C)c4ccccc4)C[C@@](O)([C@@H](OC(=O)c4ccccc4)[C@H]21)C3(C)C [docetaxel],incidence rate of bradycardia,patients,1.7%
